Laboratory results reported in patent US20160046570A1, “N-ACYLOXYSULFONAMIDE AND N-HYDROXY-N-ACYLSULFONAMIDE DERIVATIVES” (The Johns Hopkins University, priority 2009, published 2016).

Key:
[1] = HNO production via N2O quantification (GC headspace), PBS buffer pH 7.4; type: physicochemical; details: pH 7.4, 37° C. under argon, relative to Angeli's salt
Method: (§1) Nitrous oxide is produced via the dimerization and dehydration of HNO, and is the most common marker for HNO production (Fukuto, J. M. et al., Chem. Res. Toxicol. 2005, 18, 790-801).
(§2) The ability of compounds to donate HNO is assessed. N2O results are reported relative to Angeli's salt. All decompositions are carried out at 37° C. under argon.

esterase = experiment: HNO production via N2O quantification (GC headspace), PBS buffer pH 7.4 with added esterase; type: in vitro ADME; details: pH 7.4 with 2-4 mg added esterase, 37° C. under argon, relative to Angeli's salt, N2O measured at 1 hr
Method: as §1, §2

SMILES	% N2O pH 7.4 ([1]; N2O measured at 5 hr)	% N2O esterase (esterase)	% N2O pH 7.4 ([1]; no measurement time printed) [%]
CC(=O)ONS(=O)(=O)c1ccccc1Br [Compound 2, N-(acetyloxy)-2-bromobenzenesulfonamide]	<3 (5 hr) %	53 (1 hr) %	
CC(=O)ONS(=O)(=O)c1c(Cl)cccc1Cl [Compound 3, N-acetyloxy-2,6-dichlorobenzenesulfonamide]	<3 (5 hr) %	56 (1 hr) %	
O=C(c1ccccc1)N(O)S(=O)(=O)c1ccccc1 [Compound 15, N-hydroxy-N-benzoyl- benzenesulfonamide]			19
CC(C)(C)C(=O)N(O)S(=O)(=O)c1c(Cl)cccc1Cl [Compound 16, N-hydroxy-N-trimethylacetyl-2,6-dichlorobenzenesulfonamide]			41
